Legend:
human DGKα = human DGKα (Homo sapiens (Human), UniProt P23743); test: DGKα Biochemical Activity Assay (ADP-Glo); details: recombinant DGKα 1 nM, 100 μM ATP, 18:1 DAG/POPS/octylglucoside micelles, 1 hour at 25° C.; geometric mean; read-out: HTBS DGKa 1X ATP KM IC50
Summary of the method: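 Recombinant DGKα (1 nM final) was preincubated with compound for 15 min, then reacted for 1 h at 25 °C with 100 μM ATP and octylglucoside micelles of 0.85 mM 18:1 DAG and 6.75 mM POPS in pH 7.2 MOPS with 5 mM MgCl2. ADP formed was read by ADP-Glo luminescence. IC50 came from four-parameter fits normalized to DMSO and 50 μM CU3, and values were geometric means.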

[1] = system: Jurkat NFκB-luciferase cells; test: Jurkat NFκB-Luciferase Assay; assay type: cell-based; details: Homo sapiens; Jurkat NFκB-luciferase cells activated with anti-CD3 antibody (OKT3), 2.5 hrs at 37° C.; geometric mean; read-out: DGK NFKb Luciferase EC50
Summary of the method: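 Jurkat NFκB-luciferase reporter cells stimulated on plate-bound anti-CD3 (5 ug/ml coating) with compound, 2.5 hrs at 37° C then 30 min at 25° C; luminescence read with One-Glo Ex. Normalized to DMSO (basal) and 1 micromolar compound (maximum) controls; EC50 from four-parameter fit, geometric mean across experiments.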

human DGKα, sequence (P23743 whole entry): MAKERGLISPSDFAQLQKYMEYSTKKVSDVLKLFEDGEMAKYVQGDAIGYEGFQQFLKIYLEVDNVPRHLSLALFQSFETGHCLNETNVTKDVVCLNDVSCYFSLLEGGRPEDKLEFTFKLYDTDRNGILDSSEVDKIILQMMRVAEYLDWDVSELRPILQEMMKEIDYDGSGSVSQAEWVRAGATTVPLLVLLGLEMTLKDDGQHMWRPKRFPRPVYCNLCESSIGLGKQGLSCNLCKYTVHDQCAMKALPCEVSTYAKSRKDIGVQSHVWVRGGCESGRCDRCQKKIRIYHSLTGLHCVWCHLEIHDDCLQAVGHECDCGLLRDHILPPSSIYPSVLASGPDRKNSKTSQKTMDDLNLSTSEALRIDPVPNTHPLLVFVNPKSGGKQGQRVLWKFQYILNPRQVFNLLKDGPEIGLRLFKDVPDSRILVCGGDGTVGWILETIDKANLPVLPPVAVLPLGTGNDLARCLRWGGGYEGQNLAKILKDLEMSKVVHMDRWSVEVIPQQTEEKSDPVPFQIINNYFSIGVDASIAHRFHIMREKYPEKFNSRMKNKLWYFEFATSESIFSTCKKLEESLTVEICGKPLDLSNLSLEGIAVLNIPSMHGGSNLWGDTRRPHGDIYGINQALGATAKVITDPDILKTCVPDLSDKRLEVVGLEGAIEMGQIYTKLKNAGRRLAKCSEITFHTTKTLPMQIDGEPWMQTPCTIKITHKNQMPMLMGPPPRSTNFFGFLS

CNc1ccc2c(N(C)c3cccc(-c4ccc(S(F)(F)(F)(F)F)cc4)c3)nc3nncn3c2n1 [Example 116, N2,N5-dimethyl-N5-(4′-(pentafluoro-16-sulfaneyl)-[1,1′-biphenyl]-3-yl)pyrido[3,2-e][1,2,4]triazolo[4,3-a]pyrimidine-2,5-diamine]
IC50 (human DGKα): 439 nM
EC50 [1]: 5.67 nM

CN(c1cccc(-c2ccc(S(F)(F)(F)(F)F)cc2)c1)c1nc2nncn2c2nc(N)ccc12 [Example 117, N5-methyl-N5-(4′-(pentafluoro-16-sulfaneyl)-[1,1′-biphenyl]-3-yl)pyrido[3,2-e][1,2,4]triazolo[4,3-a]pyrimidine-2,5-diamine]
IC50 (human DGKα): 30.4 nM
EC50 [1]: 4.88 nM

CNc1ccc2c(N(C)c3cccc(C#CC(C)(C)C)c3)nc3nncn3c2n1 [Example 118, N5-(3-(3,3-dimethylbut-1-yn-1-yl)phenyl)-N2,N5-dimethylpyrido[3,2-e][1,2,4]triazolo[4,3-a]pyrimidine-2,5-diamine]
IC50 (human DGKα): 105 nM
EC50 [1]: 5.79 nM

CNc1ccc2c(N(C)c3cccc(-c4ccc(OC)nc4)c3)nc3nncn3c2n1 [Example 119, N5-(3-(6-methoxypyridin-3-yl)phenyl)-N2,N5-dimethylpyrido[3,2-e][1,2,4]triazolo[4,3-a]pyrimidine-2,5-diamine]
IC50 (human DGKα): 392 nM
EC50 [1]: 52.2 nM

CNc1ccc2c(N(C)c3cccc(-c4ccc(C5CC5)cc4)c3)nc3nncn3c2n1 [Example 120, N5-(4′-cyclopropyl-[1,1′-biphenyl]-3-yl)-N2,N5-dimethylpyrido[3,2-e][1,2,4]triazolo[4,3-a]pyrimidine-2,5-diamine]
IC50 (human DGKα): 19.3 nM
EC50 [1]: 0.664 nM

CN(c1cccc(C#CC2(C(F)(F)F)CC2)c1)c1nc2nncn2c2nc(N)ccc12 [Example 121, N5-methyl-N5-(3-((1-(trifluoromethyl)cyclopropyl)ethynyl)phenyl)pyrido[3,2-e][1,2,4]triazolo[4,3-a]pyrimidine-2,5-diamine]
IC50 (human DGKα): 46.2 nM
EC50 [1]: 6.93 nM

Cc1ccc2c(N(C)c3cccc(C#CC(C)(C)C)c3)nc3nncn3c2n1 [Example 122, N-(3-(3,3-dimethylbut-1-yn-1-yl)phenyl)-N,2-dimethylpyrido[3,2-e][1,2,4]triazolo[4,3-a]pyrimidin-5-amine]
IC50 (human DGKα): 42.7 nM
EC50 [1]: 4.15 nM

Cc1ccc2c(N(C)c3cccc(-c4ccc(C5CC5)cc4)c3)nc3nncn3c2n1 [Example 123, N-(4′-cyclopropyl-[1,1′-biphenyl]-3-yl)-N,2-dimethylpyrido[3,2-e][1,2,4]triazolo[4,3-a]pyrimidin-5-amine]
IC50 (human DGKα): 12.7 nM
EC50 [1]: 2.05 nM

Cc1ccc2c(N(C)c3cccc(-c4ccc(C(F)F)cc4)c3)nc3nncn3c2n1 [Example 124, N-(4′-(difluoromethyl)-[1,1′-biphenyl]-3-yl)-N,2-dimethylpyrido[3,2-e][1,2,4]triazolo[4,3-a]pyrimidin-5-amine]
IC50 (human DGKα): 12.3 nM
EC50 [1]: 7.45 nM

Cc1ccc2c(N(C)c3cccc(Cl)c3)nc3nncn3c2n1 [Example 125, N-(3-chlorophenyl)-N,2-dimethylpyrido[3,2-e][1,2,4]triazolo[4,3-a]pyrimidin-5-amine]
IC50 (human DGKα): 734 nM
EC50 [1]: 169 nM

CN(c1cccc(C#CC(C)(C)C)c1)c1nc2nncn2c2nc(N)ccc12 [Example 126, N5-(3-(3,3-dimethylbut-1-yn-1-yl)phenyl)-N5-methylpyrido[3,2-e][1,2,4]triazolo[4,3-a]pyrimidine-2,5-diamine]
IC50 (human DGKα): 21.4 nM
EC50 [1]: 3.15 nM

CN(c1cccc(-c2ccc(C3CC3)cc2)c1)c1nc2nncn2c2nc(N)ccc12 [Example 127, N5-(4′-cyclopropyl-[1,1′-biphenyl]-3-yl)-N5-methylpyrido[3,2-e][1,2,4]triazolo[4,3-a]pyrimidine-2,5-diamine]
IC50 (human DGKα): 7.25 nM
EC50 [1]: 1.43 nM

COc1ccc2c(N(C)c3cccc(C#CC(C)(C)C)c3)nc3nncn3c2n1 [Example 128, N-(3-(3,3-dimethylbut-1-yn-1-yl)phenyl)-2-methoxy-N-methylpyrido[3,2-e][1,2,4]triazolo[4,3-a]pyrimidin-5-amine]
IC50 (human DGKα): 102 nM
EC50 [1]: 3.46 nM

COc1ccc2c(N(C)c3cccc(-c4ccc(C5CC5)cc4)c3)nc3nncn3c2n1 [Example 129, N-(4′-cyclopropyl-[1,1′-biphenyl]-3-yl)-2-methoxy-N-methylpyrido[3,2-e][1,2,4]triazolo[4,3-a]pyrimidin-5-amine]
IC50 (human DGKα): 28.9 nM
EC50 [1]: 0.754 nM

COc1ccc2c(N(C)c3cccc(-c4ccc(C(F)F)cc4)c3)nc3nncn3c2n1 [Example 130, N-(4′-(difluoromethyl)-[1,1′-biphenyl]-3-yl)-2-methoxy-N-methylpyrido[3,2-e][1,2,4]triazolo[4,3-a]pyrimidin-5-amine]
IC50 (human DGKα): 55 nM
EC50 [1]: 2.52 nM

CN(c1cccc(-c2ccc(C(F)F)cc2)c1)c1nc2nncn2c2nc(N)ccc12 [Example 131, N5-(4′-(difluoromethyl)-[1,1′-biphenyl]-3-yl)-N5-methylpyrido[3,2-e][1,2,4]triazolo[4,3-a]pyrimidine-2,5-diamine]
IC50 (human DGKα): 11.5 nM
EC50 [1]: 7.69 nM

CN(c1cccc(Cl)c1)c1nc2nncn2c2nc(N)ccc12 [Example 132, N5-(3-chlorophenyl)-N5-methylpyrido[3,2-e][1,2,4]triazolo[4,3-a]pyrimidine-2,5-diamine]
IC50 (human DGKα): 388 nM
EC50 [1]: 91.4 nM

COc1ccc2c(N(C)c3cccc(-c4ccc(C(F)F)cc4)c3)nc3nnc(C)n3c2n1 [Example 133, N-(4′-(difluoromethyl)-[1,1′-biphenyl]-3-yl)-2-methoxy-N,9-dimethylpyrido[3,2-e][1,2,4]triazolo[4,3-a]pyrimidin-5-amine]
IC50 (human DGKα): 52.8 nM
EC50 [1]: 1.98 nM

Cc1nnc2nc(N(C)c3cccc(-c4ccc(C(F)F)cc4)c3)c3ccc(N)nc3n12 [Example 134, N5-(4′-(difluoromethyl)-[1,1′-biphenyl]-3-yl)-N5,9-dimethylpyrido[3,2-e][1,2,4]triazolo[4,3-a]pyrimidine-2,5-diamine]
IC50 (human DGKα): 12.3 nM
EC50 [1]: 8.3 nM

Cc1nnc2nc(N3CCCc4c(C#Cc5cnn(C)c5)cccc43)c3cc(F)cnc3n12 [Example 135]
IC50 (human DGKα): 4.03 nM
EC50 [1]: 3.1 nM

Cc1nnc2nc(N3CCOCc4c(C#CC(C)(C)C#N)cccc43)c3cc(F)cnc3n12 [Example 136]
IC50 (human DGKα): 3.35 nM
EC50 [1]: 10.4 nM

Cc1nnc2nc(N3CCOCc4c(C#Cc5cnn(C)c5)cccc43)c3ccc(C(F)(F)F)nc3n12 [Example 137, 6-((1-methyl-1H-pyrazol-4-yl)ethynyl)-1-(9-methyl-2-(trifluoromethyl)pyrido[3,2-e][1,2,4]triazolo[4,3-a]pyrimidin-5-yl)-1,2,3,5-tetrahydrobenzo[e][1,4]oxazepane]
IC50 (human DGKα): 8.38 nM
EC50 [1]: 5.67 nM

Cc1nnc2nc(N3CCOCc4c(C#CC(C)(C)C#N)cccc43)c3ccc(C(F)(F)F)nc3n12 [Example 138, 2,2-dimethyl-4-(1-(9-methyl-2 (trifluoromethyl)pyrido[3,2-e][1,2,4]triazolo[4,3-a]pyrimidin-5-yl)-1,2,3,5-tetrahydrobenzo[e][1,4]oxazepin-6-yl)but-3-ynenitrile]
IC50 (human DGKα): 6.56 nM
EC50 [1]: 4.35 nM

Cc1nnc2nc(N3CCCc4c(C#Cc5cnn(C)c5)cccc43)c3ccc(C(F)(F)F)nc3n12 [Example 139, 9-methyl-5-(5-((1-methyl-1H-pyrazol-4-yl)ethynyl)-3,4-dihydroquinolin-1(2H)-yl)-2-(trifluoromethyl)pyrido[3,2-e][1,2,4]triazolo[4,3-a]pyrimidine]
IC50 (human DGKα): 47.8 nM
EC50 [1]: 6.04 nM

Cc1nnc2nc(N3CCOCc4c(C#CC5(C)CC5)cccc43)c3ccc(C(F)(F)F)nc3n12 [Example 140, 1-(9-methyl-2-(trifluoromethyl)pyrido[3,2-e][1,2,4]triazolo[4,3-a]pyrimidin-5-yl)-6-((1-methylcyclopropyl)ethynyl)-1,2,3,5-tetrahydrobenzo[e][1,4]oxazepine]
IC50 (human DGKα): 11.5 nM
EC50 [1]: 2.37 nM

Cc1nnc2nc(N3CCOCc4c(C#CC(C)(C)O)cccc43)c3ccc(C(F)(F)F)nc3n12 [Example 141, 2-methyl-4-[1-[3-methyl-12-(trifluoromethyl)-2,4,5,7,13-pentazatricyclo[7.4.0.02,6]trideca-1(13),3,5,7,9,11-hexaen-8-yl]-3,5-dihydro-2H-4,1-benzoxazepin-6-yl]but-3-yn-2-ol]
IC50 (human DGKα): 20.1 nM
EC50 [1]: 55.8 nM

Cc1nnc2nc(N3CCCc4c(C#CC5(C(F)(F)F)CC5)cccc43)c3ccc(C(F)(F)F)nc3n12 [Example 142, 9-methyl-2-(trifluoromethyl)-5-(5-((1-(trifluoromethyl)cyclopropyl)ethynyl)-3,4-dihydroquinolin-1(2H)-yl)pyrido[3,2-e][1,2,4]triazolo[4,3-a]pyrimidine]
IC50 (human DGKα): 712 nM
EC50 [1]: 0.464 nM

Cc1nnc2nc(N3CCCc4c(C#CC5(C)CC5)cccc43)c3ccc(C(F)(F)F)nc3n12 [Example 143, 9-methyl-5-(5-((1-methylcyclopropyl)ethynyl)-3,4-dihydroquinolin-1(2H)-yl)-2-(trifluoromethyl)pyrido[3,2-e][1,2,4]triazolo[4,3-a]pyrimidine]
IC50 (human DGKα): 1.38 nM
EC50 [1]: 0.051 nM

Cc1nnc2nc(N3CCCc4c(C#CC(C)(C)C#N)cccc43)c3cc(F)cnc3n12 [Example 144, 4-(1-(3-fluoro-9-methylpyrido[3,2-e][1,2,4]triazolo[4,3-a]pyrimidin-5-yl)-1,2,3,4-tetrahydroquinolin-5-yl)-2,2-dimethylbut-3-ynenitrile]
IC50 (human DGKα): 5.08 nM
EC50 [1]: 4.67 nM

Source: patent US11926628B2 (Gilead Sciences, Inc., priority 2021, dated 2024)
